The record followed here is a melting point compilation (Tetko et al.; mined from patent text by program, amines drawn as free bases though some values may be those of a salt).

The structures appear in SMILES notation.

With `O=C1CN2C(=O)C(c3ccccc3)c3cc(Cl)cc(c32)N1` (stereo not drawn), the melting point – broadly, the temperature, or range, at which the solid turns liquid – lay in the range of 156 to 159 °C.

The compound `O=C(c1nc(-c2ccccc2)nc2ccccc12)N1CCCC(CO)C1` (stereo not drawn) returned a melting point of 142 °C.

On to `Cc1cc(C)c(COc2cccnc2NC(=S)Nc2ccc(Cl)cc2)c(C)c1`, for which the melting point lay within 180 to 182 °C.

`O=C(O)c1cccc(Cc2c[nH]cn2)c1O` yielded a melting point of 245 to 252 °C.

Compound `O=C(O)C(c1ccccc1)n1c(=O)c(=O)[nH]c2ccccc21` (stereo not drawn) displayed a melting point of 242 to 244 °C.

Take `NC(=O)N(O)CCNC(=O)c1cccc(C(=O)c2ccccc2)c1`: the melting point fell in the range of 168 to 170 °C.

On to `Nc1ccnc(Cl)c1Cl`, for which the melting point lay in the range of 146 to 148 °C.

In turn, `COc1cc2c(CCN)c[nH]c2cc1F` returned a melting point of 114 to 117 °C.

For `CCCCCCCCCCCCCC(=O)O[C@H](CCCCCCCCCCC)CC(=O)O`, the melting point was in the range of 28 to 29 °C.

As to `COc1ccnc(CCc2nc3cc(-c4ccc(S(=O)(=O)Nc5ccc(C)cc5)cc4)cnc3[nH]2)c1`, the melting point lay in the range of 219 to 220 °C.

The compound `NC(=O)c1sc2nccc(N3CCCN(c4ccc(F)cc4)CC3)c2c1N` came in with a melting point of 203 to 205 °C.

`CCn1c(=O)sc2cc(N)ccc21` gave a melting point of 132 to 133 °C.

`CSC(=NNCCCCc1ncc(Br)cc1C)NC#N` returned a melting point of 127 to 128 °C.

`CCOC(=O)Cc1cnc(N=C2SCC3Cc4ccccc4CN23)s1` (stereo not drawn) showed a melting point of 132 °C.

Turning to `O=C(c1ccnc(F)c1)N1CCC[C@H](c2nc(-c3ccc(F)cc3)no2)C1`, the melting point fell in the range of 93 to 95 °C.

In the case of `COC(=O)c1ccc(CN2CCN(C(=O)c3cc(C(F)(F)F)cc(C(F)(F)F)c3)[C@H](Cc3c[nH]c4ccccc34)C2)cc1`, the melting point is 75 to 78 °C.

On to `CNC(=S)C1(c2cccc(C)n2)CCCO1` (stereo not drawn), for which the melting point was determined as 151 °C.

`CS(=O)(=O)Nc1ccc(N)cc1CC1CCCCC1` gave a melting point of 160 to 162 °C.

As to `CCC(CC)c1ccc(Cl)c2nc3n(c12)CCCCN3c1ncc(C(F)(F)F)cc1Cl`, the melting point was in the range of 108 to 110 °C.

`Cc1cc(-c2ccc(C(F)(F)F)cc2)cn2c(-c3cc(-c4ncon4)c(S(N)(=O)=O)s3)cnc12`: the melting point worked out at 285 °C.

In turn, `CCCCOC(=O)[C@@H]1OC(c2ccc(C#Cc3ccc(C4O[C@@H](C(=O)OCCCC)[C@H](C(=O)OCCCC)O4)cc3)cc2)O[C@H]1C(=O)OCCCC` came in with a melting point of 54 °C.

Compound `CC12CCC3c4ccc(C(=O)O)cc4CCC3C1CCC2C(=O)Cc1ccccc1` (stereo not drawn) yielded a melting point of 146 to 150 °C.

Compound `CSc1cn(C)c2c(-c3ccccc3)csc2c1=O` showed a melting point of 204 to 206 °C.

The compound `O=C(C(Cl)=CO)c1ccc(Cl)cc1Cl` registered a melting point of 162 °C.

Consider `O=C(O)c1cccc(-c2nc3sccn3c2-c2ccnc(N[C@@H]3CCCN(S(=O)(=O)c4ccc(Cl)cc4)C3)n2)c1`, for which the melting point fell in the range of 190 to 195 °C.

The compound `CN(C)c1nc2cc(NC(=O)c3c(C(=O)N4CC(F)C4)cnn3C)ccn2n1` had a melting point of 243 to 244 °C.

Turning to `C[C@@H](n1cncn1)[C@](O)(Cn1cncn1)c1ccccc1F`, the melting point was 105 to 106 °C.

`O=[N+]([O-])c1cc2nc(Cl)n(C3OC(CO)C(O)C3O)c2cc1[N+](=O)[O-]` (stereo not drawn) showed a melting point of 132 to 135 °C.

With `N#Cc1c(-c2ccccc2)c(-c2ccccc2)n[nH]c1=O`, the melting point lay within 280 to 281 °C.

For `CCC(Nc1ccc(OC)nc1)n1nnc2ccccc21` (stereo not drawn), the melting point lay within 109 to 110 °C.

With `COC(=O)c1ccccc1OCNC(=O)OC(C)(C)C`, the melting point is 95 to 96 °C.

Consider `Cc1nc2c(N)nc3ccc(OCc4ccccc4)cc3c2n1CCCCNC(=O)Nc1ccccc1`, for which the melting point was in the range of 202 to 204 °C.

In turn, `CC(C)c1nc(-c2ccccc2Cc2ccccc2)cc(-c2ccc(F)cc2)c1CO` had a melting point of 122 to 124 °C.

`COc1ccc(Cn2nc(-n3cnn(Cc4ccc(F)cc4)c3=O)cc2C(=O)O)cc1` displayed a melting point of 205 to 207 °C.

With `COc1cnc(CO)c(C)c1OC`, the melting point lay in the range of 91 to 92 °C.

`O=C1CCC(c2ccc(-c3ccc(=O)[nH]n3)cc2)=NN1` gave a melting point of more than 250 °C.

As for `Nc1c(C(=O)c2ccoc2)[nH]c2cc(Cl)ccc12`, the melting point lay within 113 to 114 °C.

`O=C(c1cc(Cl)ccc1O)c1ccccc1F` displayed a melting point of 76 to 80.5 °C.

`O=C(Nc1cccc(C(F)(F)F)c1)c1ccc([N+](=O)[O-])cc1`: the melting point was 210 °C.

On to `CC1OC(Cn2cncn2)(c2ccc(Cl)cc2Cl)C1(C)C` (stereo not drawn), for which the melting point was 118 to 125 °C.

Compound `COC(=O)[C@H]1CC[C@H](n2cnn(-c3ccc(C4CCN(C(=O)C(F)(F)F)CC4)cc3)c2=O)CC1` showed a melting point of 184 to 186 °C.

`COc1cc(C)nc2nc(S(=O)(=O)Nc3c(Cl)ccc(C)c3Cl)nn12` registered a melting point of 239 to 242 °C.

`N#Cc1ccc(-c2ccc(-c3ccc(C#N)cn3)o2)nc1` came in with a melting point of 311 to 312 °C.

Compound `COCCC1(c2ccc(O)cc2)N=CC=N1` gave a melting point of 173 to 176 °C.

On to `CC(C(O)c1ccc2c(c1)CCCS2)N1CCN(C(=O)C=Cc2ccccc2Cl)CC1` (stereo not drawn), for which the melting point lay within 206 to 209 °C.

In turn, `COc1cc(N)ccc1OC[C@H](O)C1CC1` showed a melting point of 71 °C.

With `CN1C(=O)C(C#N)(c2ccc(OCC3CO3)cc2)Sc2ccccc21` (stereo not drawn), the melting point fell in the range of 136 to 139 °C.

On to `CS(=O)(=O)O[C@@H]1CCc2c(F)cc(F)cc2C1`, for which the melting point lay within 79 to 80 °C.

`CC(=NOC(=O)Nc1ccccc1)C(C)N(C(=O)CCl)c1c(C)cccc1C` (stereo not drawn) yielded a melting point of 115 to 117 °C.

Regarding `Cn1c(Nc2cccc(C(F)(F)F)c2)nc2c(-c3cccc(C(=O)NCCO)c3)cccc21`, the melting point was 235 to 236 °C.

As to `N#Cc1cc(=O)c2c(o1)c1ccccc1n2-c1ccccc1`, the melting point was in the range of 192 to 193 °C.

Regarding `N#Cc1ccc(C(=O)N2CCN(C(=O)C3CCN(c4ccncn4)CC3)CC2)cc1`, the melting point was in the range of 192 to 193 °C.

`CCCCCCCNC(=O)Nc1ccccc1N(C)C(=O)c1cc(C(C)(C)C)c(O)c(C(C)(C)C)c1` had a melting point of 193 to 196 °C.

With `Cc1[nH]c(=S)n(Nc2ccc(F)cc2)c1-c1ccccc1`, the melting point was determined as 228 °C.

With `COc1cccc(C(=O)CC(=O)c2cc(NC(C)=O)ccc2O)c1`, the melting point was in the range of 72 to 73 °C.

`COc1cc(C)nc(OC)c1NC(=O)CN1CCN(CCSc2nc3ccccc3o2)CC1` showed a melting point of 113 to 115 °C.

Turning to `O=C(O)C1CCc2c(c3cc(O)ccc3n2C(=O)c2ccccc2)C1` (stereo not drawn), the melting point is 224 to 227 °C.

In the case of `Cc1cc(O)ccc1-n1cc(C(=O)O)c(=O)cc1C1CCCCCCC1`, the melting point was in the range of 118 to 120 °C.

`CCCCc1nc2c(N)nc3ccc(OCCC4CCN(C(=O)C5CCCC5)CC4)cc3c2n1C` gave a melting point of 147 to 150 °C.

With `O=C1CCSC(=S)N1c1ccccn1`, the melting point is 157 °C.

`CCOC(=O)c1ncc2[nH]c3ccccc3c2c1CCOC` gave a melting point of 181 to 183 °C.

For `COC(=O)C(C#N)=Cc1cc2c(cc1C)N(CCOC(C)=O)C(C)(C)CC2C` (stereo not drawn), the melting point was 134 to 135 °C.

As for `NC(=O)/C=C1\CCc2c(Cl)cc(F)cc21`, the melting point fell in the range of 182 to 184 °C.

For the compound `FC(F)=C(F)Oc1ccc(C2(c3ccc(OC(F)=C(F)F)cc3)c3ccccc3-c3ccccc32)cc1`, the melting point fell in the range of 115 to 116 °C.

As for `Cc1ccc(OCC2CN(C(C)C)C(=O)O2)cn1` (stereo not drawn), the melting point was in the range of 86 to 88 °C.

`CN(C)Cc1nc(C=O)nn1-c1ccc(Cl)cc1C(=O)c1ccccc1` gave a melting point of 178 to 181 °C.

Consider `CCCCCCCCCCCCCCOc1ccc(CCN(C(C)=O)c2cccc(Cc3nccs3)c2)cc1`, for which the melting point fell in the range of 46 to 50 °C.

Regarding `CC(=O)c1ccc2sc3ccc(C(C)=O)cc3c2c1`, the melting point lay in the range of 207 to 210 °C.

Compound `O=c1[nH]c2ccccc2c(=O)n1CCN1CCC(c2c[nH]c3cc(F)ccc23)CC1` displayed a melting point of 301 °C.

Compound `NC(=C[N+](=O)[O-])NC1CCCC1` showed a melting point of 117 to 124 °C.

With `CC1(C)Cc2cc3c(cc2O1)OCC31C(=O)N(CC(=O)Nc2ccccc2F)c2cccc(-c3cncnc3)c21` (stereo not drawn), the melting point was more than 250 °C.

In turn, `COc1cccc([C@H]2O[C@H](CC(=O)O)C(=O)N(CC(C)(C)CO)c3ccc(Cl)cc32)c1OC` returned a melting point of 199 to 202 °C.

`Cc1nc2cccc(OCC(C)C)c2c(N)c1C(=O)O` registered a melting point of 204 °C.

Turning to `CCn1nc(-c2ccccc2)c(C(C)=O)c(Nc2ccc(O)c3ncccc23)c1=O`, the melting point was in the range of 262 to 263 °C.

`CCCCNC(=O)Oc1ccc(Oc2ccc(Cl)cc2)cc1` displayed a melting point of 106 to 108 °C.

`Cc1ccc(OCC2CO2)c([N+](=O)[O-])c1[N+](=O)[O-]` (stereo not drawn) returned a melting point of 121 to 123 °C.

The compound `CCCc1c(CSc2nnc(SCCCC(=O)O)s2)ccc(C(C)=O)c1O` gave a melting point of 75 to 78 °C.

Compound `CC(O)c1cc(C(F)(F)F)cc(S(N)(=O)=O)c1` (stereo not drawn) registered a melting point of 169 to 170 °C.

`CCOc1cc(N)c([N+](=O)[O-])cc1C(=O)O` displayed a melting point of 230 °C.

As for `CC(C)(C)OC(=O)Nc1cc(=O)c2cc(Oc3ccccc3)c(NS(C)(=O)=O)cc2o1`, the melting point was 147 to 150 °C.

`CN(C)S(=O)(=O)NC(=O)N1CC(c2ccccc2)C(c2ccc(Cl)cc2)=N1` (stereo not drawn) gave a melting point of 210 to 212 °C.

`CC(C)(C)C(=O)c1c[nH]c2ncc(-c3cccc(OCc4ccccc4)c3)nc12`: the melting point fell in the range of 184 to 185 °C.

The compound `CCOC(=O)C1Cc2c([nH]c3cccc(C#N)c23)CN1` (stereo not drawn) came in with a melting point of 248 °C.

Consider `N#Cc1ccc(N2CCOCC2)c2ccccc12`, for which the melting point was in the range of 128 to 129 °C.

For `O=C(O)[C@H]1C[C@@H](CP(=O)(O)O)c2ccccc2N1` (relative stereo), the melting point was 171 to 173 °C.

`CC(=O)NCCn1ccc2c1-c1ccccc1CC2` yielded a melting point of 95 to 96 °C.

Compound `COc1ccc(N2CCN(c3ccc(N4C(=O)N(C(C)C(C)=O)C(C)(C)C4=O)cc3)CC2)cc1` (stereo not drawn) displayed a melting point of 226 °C.

`CCCn1nc(C)c2c1C1=NC(C)CN1C(C)=N2` (stereo not drawn): the melting point was 85 to 90 °C.
